Measured values as given in article PMC11249953, “c-KIT inhibitors reduce pathology and improve behavior in the Tg(SwDI) model of Alzheimer’s disease” (Life Science Alliance, 2024).
Values joined by “and” are separate entries in the source; they are usually repeats but may differ in a detail not shown here. Identical values can stand only once.

Key:
[1] = molecular target: T1, PDGFRa (Homo sapiens, UniProt P16234); assay: KINOMEscan competition binding, PDGFRa; details: 10 µM compound
T1 construct: DNA label for qPCR read-out (T7 phage fusion or DNA tag); purchased Eurofins DiscoverX Corporation; host or cells: T7 phage in E. coli (BL21-derived) or HEK-293
Procedure: The KINOMEscan screening platform (Eurofins DiscoverX Corporation) was performed using active site-directed competition binding assay to quantitatively measure interactions between BK40143 and BK40197 and more than 450 human kinases and disease relevant mutant variants. […] Screening “hits” are identified by measuring the amount of kinase captured in test (BK40143 and BK40197) versus control samples by using a quantitative and ultra-sensitive qRT-PCR method that detects the associated DNA label. BK40143 and BK40197 were screened at 10 µM concentration, and results for primary screen binding interactions were reported as “% Ctrl” (POC), where lower numbers indicate stronger hits and calculated as follows: [test compound signal−positive control signal/negative control signal−positive control signal]×100
negative control = DMSO (100% Ctrl)
positive control = control compound (0% Ctrl)
Based on screening data from of profiled compounds, a proportional relationship between primary screening results and corresponding compound/target affinities can be described as binding constants (Kd values) for the indicated ranges of POC values with tighter binding (higher affinity) interactions associated with lower POC values and weaker binding (lower affinity) associated with higher POC values. Briefly, kinase-tagged T7 phage strains were grown in parallel in 24-well blocks in an E. coli host derived from the BL21 strain. E. coli were grown to log-phase and infected with T7 phage from a frozen stock (multiplicity of infection = 0.4) and incubated with shaking at 32°C until lysis (90–150 min). The lysates were centrifuged (6,000g) and filtered (0.2 μm) to remove cell debris. The remaining kinases were produced in HEK-293 cells and subsequently tagged with DNA for qRT-PCR detection. Streptavidin-coated magnetic beads were treated with biotinylated small molecule ligands for 30 min at RT to generate affinity resins for kinase assays. The liganded beads were blocked with excess biotin and washed with blocking buffer (1% BSA, 0.05% Tween 20, 1 mM DTT; SeaBlock [Pierce]) to remove unbound ligand and to reduce non-specific phage binding. Binding reactions were assembled by combining kinases, liganded affinity beads, and test compounds in 1x binding buffer (20% 0.17x PBS, 0.05% Tween 20, 6 mM DTT; SeaBlock). Test compounds were prepared as 100x stocks in 100% DMSO and directly diluted into the assay. All reactions were performed in polypropylene 384-well plates in a final volume of 0.02 ml. The assay plates were incubated at RT with shaking for 1 h and the affinity beads were washed with wash buffer (1x PBS, 0.05% Tween 20). […] The kinase concentration in the eluates was measured by qRT-PCR.

[2] = system: SH-SY5Y neuroblastoma cells transfected with α-synuclein; assay: In vitro autophagy assay (Abcam kit, flow cytometry); format: cell-based, human; details: 10 μM, vs DMSO
Procedure: To establish that treatment with BK40143 and BK40197 induces autophagy, human SH-SY5Y neuroblastoma cells were transfected with an α-synuclein plasmid before being treated with rapamycin/chloroquine as a positive control, DMSO as a negative control, or an ascending dose ([…]) of either BK40143 or BK40197 for 8 h. Cells were then harvested and treated using the Abcam Autophagy Assay kit, which uses a cationic amphiphilic tracer to stain autophagic vacuoles, before analysis via flow cytometry.
Human SH-SY5Y neuroblastoma cells were grown and cultured in F12 media with 10% fetal bovine serum, 1% L-glutamine, and 1% pen/strep at normal atmospheric conditions (37°C, 21% O2, 5% CO2). Upon reaching 50–70% confluence, cells were transduced with a lentivirus containing an alpha-synuclein plasmid and allowed to grow for 8 h. Cells were then treated with an ascending dose (100 nM–10 μM) of BK40143 or BK40197, or DMSO or rapamycin/chloroquine overnight before being harvested and treated with the Abcam Autophagy Assay kit (cat. #ab139484) according to manufacturer’s protocols. Cells were then resuspended in cell staining buffer before being analyzed on a Becton Dickinson LSRFortessas flow cytometer.

[3] = system: TgAPP mice; assay: Morris water maze, TgAPP mice; format: in vivo, mouse; design: Platform Distance: unit not given beside the values; Total Distance / Quad Time / Quad Distance / Trial 1 D4 / Trial 1 D4 AVG: unit not given here
Procedure: The Morris water maze was performed using a water bath 6 ft in diameter and filled with roughly 1 ft of water. The maze was divided into four quadrants, each with a visual stimulus positioned on the wall of the maze in the center of the quadrant arc. A clear platform was placed in one quadrant just beneath the surface of the water. Mice were then placed in a random non-platform quadrant and allowed to swim freely for 60 s (time was stopped and recorded if the mouse found the platform) before being placed on the platform for 15 s and returned to their cage. This was repeated for each of the three quadrants each day for 4 d. On the 5th d, the platform was removed and mice were placed in the quadrant opposite of where the platform had been and allowed to swim freely for 1 min before being returned to their cage. Time spent in the correct quadrant, latency to the platform, number of platform entries, and number of quadrant entries were recorded.

[4] = MWM Probe, single animal values, listed as 143
[5] = MWM Probe, single animal values, listed as 143, in s (unit assumed)
[6] = MWM training, Day 1, single animal values, listed as 143
[7] = MWM training, Day 2, single animal values, listed as 143
[8] = MWM training, Day 3, single animal values, listed as 143
[9] = MWM training, Day 4, single animal values, listed as 143

T1 sequence (P16234 24-1089): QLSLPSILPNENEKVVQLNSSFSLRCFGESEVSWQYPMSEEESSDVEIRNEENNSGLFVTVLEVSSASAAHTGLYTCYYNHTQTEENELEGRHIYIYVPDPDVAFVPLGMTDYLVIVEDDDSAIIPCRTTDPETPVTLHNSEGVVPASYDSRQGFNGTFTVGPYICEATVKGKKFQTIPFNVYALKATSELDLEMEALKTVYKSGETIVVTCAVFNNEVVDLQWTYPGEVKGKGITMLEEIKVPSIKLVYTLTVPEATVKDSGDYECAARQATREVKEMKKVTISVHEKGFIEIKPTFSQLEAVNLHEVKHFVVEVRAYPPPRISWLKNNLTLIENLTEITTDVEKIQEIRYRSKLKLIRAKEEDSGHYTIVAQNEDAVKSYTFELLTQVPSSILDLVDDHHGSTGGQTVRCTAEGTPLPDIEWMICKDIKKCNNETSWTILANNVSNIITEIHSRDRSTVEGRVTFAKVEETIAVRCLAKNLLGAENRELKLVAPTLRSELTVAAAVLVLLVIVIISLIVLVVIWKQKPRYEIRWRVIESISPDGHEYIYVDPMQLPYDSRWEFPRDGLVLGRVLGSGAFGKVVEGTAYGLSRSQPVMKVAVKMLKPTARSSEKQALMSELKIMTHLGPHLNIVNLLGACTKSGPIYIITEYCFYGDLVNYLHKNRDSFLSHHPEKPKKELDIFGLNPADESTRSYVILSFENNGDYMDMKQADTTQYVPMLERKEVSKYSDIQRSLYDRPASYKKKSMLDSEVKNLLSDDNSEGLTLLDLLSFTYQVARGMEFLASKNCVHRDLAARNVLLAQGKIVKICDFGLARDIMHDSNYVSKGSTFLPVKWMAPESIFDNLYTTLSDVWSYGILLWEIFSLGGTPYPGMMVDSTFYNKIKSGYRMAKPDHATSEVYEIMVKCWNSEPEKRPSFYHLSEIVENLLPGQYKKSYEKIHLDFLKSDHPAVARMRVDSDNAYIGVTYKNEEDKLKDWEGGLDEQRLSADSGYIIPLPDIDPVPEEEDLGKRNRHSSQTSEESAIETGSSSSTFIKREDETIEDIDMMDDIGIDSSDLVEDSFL

Cc1cccc(-c2cc3nccc(Nc4ccccc4)c3s2)c1 [BK40143]
inhibition at 10 µM [1]: 98.1% | remaining binding at 10 µM ([1]; lower = stronger binding, read-out: PDGFRa %Ctrl @ 10000nM (POC)): 1 to 10% | labelled cells (autophagic vacuoles), induction of autophagy [2]: significant increases in labelled cells | Platform Distance [3, 4]: 0.467 and 0 and 0.449 and 0.195 and 0.184 and 0.331 and 0.254 and 0.89 and 0.328 | Platform Entries [3, 4]: 2 and 0 and 1 and 3 | Quad Distance [3, 4]: 5.043 and 5.446 and 3.201 and 3.934 and 3.492 and 4.145 and 2.65 and 6.181 and 3.964 | Quad Distance/Total [3, 4]: 0.3982 and 0.4027 and 0.1894 and 0.2536 and 0.5166 and 0.3292 and 0.1787 and 0.6061 and 0.2552 | Quad Entries [3, 4]: 10 and 8 and 9 and 3 and 6 and 13 and 7 | Quad Time [3, 4]: 22.9 and 26.8 and 10.6 and 13.3 and 30.6 and 20.6 and 8.1 and 36.5 and 15.3 | Total Distance [3, 4]: 12.663 and 13.525 and 16.899 and 15.514 and 6.759 and 12.592 and 14.83 and 10.786 and 10.198 and 15.531 | Platform Latency ([3]; MWM Probe, single animal values, listed as 143, in s): 7 and 60 and 18.8 and 32.8 and 39.9 and 29.7 and 3.9 and 19 and 17.1 | Platform Time [3, 5]: 1.2 and 0 and 1.4 and 0.6 and 0.8 and 5.3 and 1 | Quad Latency [3, 5]: 3 and 9.6 and 9.7 and 11.8 and 11.9 and 1 and 2.6 and 4.4 and 3.3 | Quad Time per Entry [3, 5]: 2.29 and 3.35 and 1.178 and 4.433 and 5.1 and 1.585 and 1.35 and 5.214 and 1.9125 | Training Day 1 AVG ([3]; MWM training, Day 1, group average): 51.6747 | Training Day 1, mean of the three trials per animal ([3]; MWM training, Day 1, per-animal mean, listed as 143): 53.4467 and 60 and 52.4667 and 29.4467 and 47.4833 and 58.2367 and 44.37 and 51.2967 | Training Day 1, trial 1 [3, 6]: 40.34 and 60 and 56.02 | Training Day 1, trial 2 [3, 6]: 60 and 37.4 and 16.7 and 22.45 and 54.71 and 56.59 | Training Day 1, trial 4 [3, 6]: 60 and 11.64 and 20.5 and 33.89 | Training Day 2 AVG ([3]; MWM training, Day 2, group average): 35.2243 | Training Day 2, mean of the three trials per animal ([3]; MWM training, Day 2, per-animal mean, listed as 143): 48.7167 and 60 and 46.3833 and 23.8467 and 50.26 and 10.58 and 21.0467 and 41.7533 and 44.3033 and 5.353 | Training Day 2, trial 1 [3, 7]: 60 and 20.69 and 7.13 and 14.22 and 47.78 and 22.96 and 5.56 | Training Day 2, trial 2 [3, 7]: 60 and 19.15 and 23.07 and 4.53 and 36.28 and 34.46 and 5.16 | Training Day 2, trial 4 [3, 7]: 26.15 and 60 and 27.78 and 30.78 and 20.08 and 12.64 and 43.02 and 49.95 and 5.34 | Training Day 3 AVG ([3]; MWM training, Day 3, group average): 21.9237 | Training Day 3, mean of the three trials per animal ([3]; MWM training, Day 3, per-animal mean, listed as 143): 16.49 and 19.77 and 22.4067 and 12.88 and 27.5233 and 6.497 and 51.49 and 20.0267 and 24.96 and 17.1933 | Training Day 3, trial 1 [3, 8]: 5.91 and 7.09 and 10.32 and 15.21 and 29.09 and 11.01 and 60 and 23.94 and 21.27 and 31.09 | Training Day 3, trial 2 [3, 8]: 2.72 and 9.21 and 18.46 and 13.59 and 19.08 and 3.47 and 34.47 and 8.82 and 17.41 and 5.46 | Training Day 3, trial 4 [3, 8]: 40.84 and 43.01 and 38.44 and 9.84 and 34.4 and 5.01 and 60 and 27.32 and 36.2 and 15.03 | Trial 1 D4 AVG ([3]; MWM training, Day 4, Trial 1, group average): 16.872 | Training Day 4 AVG ([3]; MWM training, Day 4, group average): 25.5753 | Training Day 4, mean of the three trials per animal ([3]; MWM training, Day 4, per-animal mean, listed as 143): 15.5667 and 10.07 and 25.41 and 53.8233 and 37.2967 and 27.5933 and 22.5667 and 22.4167 and 10.7767 and 30.2333 | Training Day 4, trial 1 [3, 9]: 12.47 and 11.66 and 37.95 and 60 and 26.19 and 10.69 and 29.33 and 43.27 and 12.2 and 43.31 | Training Day 4, trial 2 [3, 9]: 3.58 and 4.64 and 11.51 and 49.87 and 42.77 and 12.09 and 15.35 and 10.7 and 9.45 and 8.76 | Training Day 4, trial 4 [3, 9]: 30.65 and 13.91 and 26.77 and 51.6 and 42.93 and 60 and 23.02 and 13.28 and 10.68 and 38.63 | Morris water maze probe day (time in correct quadrant, quadrant entries, latency to platform) ([3]; TgAPP mice, 5 mg/kg IP, 6 wk, vs DMSO): showed improvement on measures of memory on the probe day of the water maze | Morris water maze training trials: time to locate the platform ([3]; TgAPP mice, BK40143 5 mg/kg, BK40197 45 mg/kg IP, 6 wk, vs DMSO): locate the platform significantly quicker on later training trials
